According to US10744188B2, “High osteocalcin microcrystalline hydroxyapatite for calcium supplement” (Waitaki Biosciences, priority 2013, dated 2020):
“Also recorded” adds a separate entry of the source. Structures can show the parent of a compound that is named as a salt.

Columns and labels:
[1] = 90 day study of bone calcium level and markers of bone mineralization and turnover; assay type: in vivo; settings: 90 day experimental duration
[2] = blood ionized calcium concentration after ingestion of calcium supplement (clinical tests, FIG. 1)
Excerpt: For some time microcrystalline hydroxyapatite (MCHA) manufactured from animal bones has been used as a slightly unconventional calcium supplement. Considering that bone mineral is largely calcium phosphate in the form of hydroxyapatite, it seems logical to use MCHA as a source of bone calcium. However, there can be some difficulty in purifying MCHA from native bones because there is considerable excess protein and lipid that must be removed to provide a stable as well as readily digestible product. As might be imagined there is considerable variation in the process parameters for making an MCHA product. In a study intended to compare MCHA to conventional calcium supplements, the inventors analyzed MCHA produced using varied protocols. They were surprised to discover that depending on how the MCHA is manufactured, its rate of bioabsorption changes quite dramatically. After considerable experimentation, the inventors developed the current product which was then compared to calcium carbonate and calcium citrate in both an absorption (measured by blood calcium concentration) and a bone mineralization/density study.
However, it must be kept in mind that the blood calcium concentration is maintained by withdrawing calcium from the bones if the dietary supply is insufficient.
In FIG. 1 the blood levels of ionized calcium of two different MHCA preparations (see below for preparation details) are compared to blood calcium levels provided by other calcium supplements.

Row | Compound | bone calcium level and other markers of bone mineralization and turnover, compared with calcium-free placebo [1] | bone calcium level and other markers of bone mineralization and turnover, supplements compared with each other [1] | duration of spiking of blood calcium concentration ([2]; after ingestion) | blood ionized calcium level after ingestion ([2]; compared with calcium-free placebo/control) | blood ionized calcium level after ingestion ([2]; human, in vivo) | duration of spiking of blood calcium concentration ([2]; human, in vivo) | blood ionized calcium level after ingestion ([2]; in vivo)
1 | O=C([O-])[O-].[Ca+2] [calcium carbonate] | statistically significantly different from the calcium-free placebo | not statistically significantly different from each other | ca. 8 hour | spike above the normal 1 mM concentration; also recorded: rapid increase in ionized blood calcium | – | – | –
2 | O=C(O)CC(O)(CC(=O)O)C(=O)O [calcium citrate] | statistically significantly different from the calcium-free placebo | not statistically significantly different from each other | – | – | spike above the normal 1 mM concentration | ca. 8 hour | rapid increase in ionized blood calcium
3 | microcrystalline hydroxyapatite [MCHA] | – | – | – | – | – | – | not statistically significantly different from the calcium-free placebo
